# Measurements reported in PubChem BioAssay AID1996.
# Conditions: buffer; pH 7.4; 200.0 µM
row,Structure (SMILES),solubility kinetic
1,N#C/C(=C(/O)C(Cl)(Cl)Cl)c1nc2ccccc2[nH]1,12.1 µg/mL
2,O=C(Nc1cc(Cl)c(Cl)cc1Cl)c1cccnc1,6.1 µg/mL
3,CCOC(=O)c1csc(COc2ccccc2Cl)n1,2.9 µg/mL
4,Cc1cn(CCC(=O)Nc2ccc(N3CCOCC3)cc2)c2ccccc12,46.7 µg/mL
5,CC(C)Cc1ccc(C(=O)NCc2ccc3c(c2)OCO3)o1,28.3 µg/mL
6,COc1ccc2c(c1)c(-c1csc(N)n1)c(C)n2C,27.7 µg/mL
7,NS(=O)(=O)c1ccc(CNC(=S)NC2CCCCC2)cc1,47.9 µg/mL
8,CCCn1c(SCC(=O)NC)nc2sc3c(c2c1=O)CCC3,5.5 µg/mL
9,COc1ccc(OCCC(=O)OCC(=O)NCCC2=CCCCC2)cc1,> 54.2 µg/mL
10,O=S(=O)(c1c(Cl)cc(Br)cc1Cl)N1CCN(C(=S)NC2CC2)CC1,5.3 µg/mL
11,O=C(CNc1ccccc1C(=O)O)c1ccccc1,36.3 µg/mL
12,Cc1ccc(CCC(=O)Nc2ccccc2C(=O)O)o1,> 41 µg/mL
13,O=C(NC(=S)NCCc1ccccc1)c1cccc(Cl)c1,0.6 µg/mL
14,O=C(COC(=O)c1ccc(F)c(S(=O)(=O)N2CCOCC2)c1)NCc1ccc(Cl)cc1,7.1 µg/mL
15,COC(=O)[C@@H](N)CS.Cl,> 25.7 µg/mL
16,NNC(=O)c1ccc(COCC(F)(F)C(F)F)cc1,> 42 µg/mL
17,Cl.N=C(c1ccc([N+](=O)[O-])cc1)N1CCCCCC1,> 42.6 µg/mL
18,O=C(NCCCCc1ccccc1)c1cccc(Br)c1,9.6 µg/mL
19,CCOC(=O)Cn1c(=O)c(C#N)cn(C(C)C)c1=O,> 39.8 µg/mL
20,Cc1cc(C(=O)N2CC(C)CC(C)C2)c(C)o1 (configuration not stated),30.1 µg/mL
21,Cc1csc(SCC(=O)NC(=O)NC(C)C)n1,> 41 µg/mL
22,O=C(Nc1ccc(S(=O)(=O)N2CCOCC2)cc1)c1ccccc1,> 52 µg/mL
23,CCCCOc1ccc(C(=O)NCCc2ccccc2)cc1,< 0.6 µg/mL
24,CC1(C)C2CCC1(CS(=O)(=O)Nc1ccccc1)C(=O)C2 (configuration not stated),42.8 µg/mL

row,Structure (SMILES),solubility kinetic
1,O=C(NCCc1ccc(Cl)cc1)c1ccc(Br)s1,1.2 µg/mL
2,COc1ccccc1CC(=O)NC(=O)c1ccccc1O,41.5 µg/mL
3,COc1ccc(CC(=O)OCC(=O)NCc2ccc(F)cc2)cc1,> 49.7 µg/mL
4,CCOC(=O)C1CCN(C(=O)COc2cccc3ccccc23)CC1,43.2 µg/mL
5,CC(=O)c1sc2nc(CSc3nncn3C)[nH]c(=O)c2c1C,> 50.3 µg/mL
6,C=CCn1c(O)c(C(CC)=Nc2cccc(C(=O)O)c2)c(=O)[nH]c1=O,> 51.5 µg/mL
7,CCOC(=O)c1[nH]c2ccccc2c1NC(=O)NC(C)C,1.7 µg/mL
8,Cc1cc(C(F)(F)F)nn1CC(=O)N(C)c1ccccc1,> 44.6 µg/mL
9,O=[N+]([O-])c1ccc(Oc2ccc(OCc3ccccc3)cc2)nc1,< 0.3 µg/mL
10,CCOC(=O)c1cc([N+](=O)[O-])sc1N,4.6 µg/mL
11,CCOc1ccc(S(=O)(=O)/N=C(/Nc2ccc(C(C)=O)cc2)c2ccccc2)cc1,18.1 µg/mL
12,O=C(CCC(=O)NC12CC3CC(CC(C3)C1)C2)NC1CCCCC1,17.2 µg/mL
13,O=C(COC(=O)c1cnccn1)c1cccc([N+](=O)[O-])c1,> 43.1 µg/mL
14,COc1cc(/C=C/c2onc(C)c2[N+](=O)[O-])cc(OC)c1OC,< 0.3 µg/mL
15,CC(=O)Nc1ccc(S(=O)(=O)NC2CCS(=O)(=O)C2)cc1Cl (configuration not stated),23.8 µg/mL
16,O=C(NC1CC2CCCC(C1)N2Cc1ccccc1)c1cccc(F)c1 (configuration not stated),45.1 µg/mL
17,CCN(C(=O)COC(=O)c1ccccc1O)c1cccc2ccccc12,3.5 µg/mL
18,O=C(O)CC(CC(=O)Nc1ccc(C(=O)O)cc1)c1ccccc1 (configuration not stated),> 49.1 µg/mL
19,CCN(CC(=O)NC(=O)NCc1ccccc1)Cc1ccccc1,40.9 µg/mL
20,COc1ccc(C)cc1NC(=O)Nc1ccc2c(c1)CCC2,0.7 µg/mL
21,CCC1(CC)Nc2ccccc2C(=O)N1c1ccc(OC)cc1,16.5 µg/mL
22,COc1ccc2c(c1)-c1nc(/N=C/c3cccc(OC)c3O)sc1CC2,> 55 µg/mL
23,Cc1ccccc1OCC(O)CN1C(=O)c2ccccc2C1=O (configuration not stated),41.7 µg/mL
